From patent EP0478235A2, “A directed biosynthesis for an immunomycin derivative” (MERCK & CO. INC., priority 1990, dated 1992)

System: T lymphocytes
Experiment: T-cell proliferation assay (tritiated thymidine incorporation, ionomycin + PMA stimulation)
Assay type: cell-based, C57B1/6 mice
Conditions: T-lymphocyte
Method: Purified compound, or fractions, prepared by HPLC, was dissolved in absolute ethanol at a final concentration of 100 µg/ml.
Spleens from C57B1/6 mice were taken under sterile conditions and gently dissociated in ice-cold RPMI 1640 culture medium (GIBCO, Grand Island, N. Y.) supplemented with 10% heat-inactivated fetal calf serum (GIBCO). Cells were pelleted by centrifugation at 1500 rpm for 8 minutes. Contaminating red cells were removed by treating the pellet with ammonium chloride lysing buffer (GIBCO) for 2 minutes at 4°C. Cold medium was added and cells were again centrifuged at 1500 rpm for 8 minutes. T lymphocytes were then isolated by separation of the cell suspension on nylon wool columns as follows: Nylon wool columns were prepared by packing approximately 4 grams of washed and dried nylon wool into 20 ml plastic syringes. The columns were sterilized by autoclaving at 250°F for 30 minutes. Nylon wool columns were wetted with warm (37°C) culture medium and rinsed with the same medium. Washed spleen cells resuspended in warm medium were slowly applied to the nylon wool. The columns were then incubated in an upright position at 37°C for 1 hour. Non-adherent T lymphocytes were eluted from the columns with warm culture medium and the cell suspensions were spun as above.
Purified T lymphocytes were resuspended at […] in complete culture medium composed of RPMI 1640 medium with 10% heat-inactivated fetal calf serum, […], 1mM sodium pyruvate, 2 x 10⁻⁵M 2-mercaptoethanol and 50 µg/ml gentamycin. Ionomycin was added at 250 ng/ml and PMA at 10 ng/ml. The cell suspension was immediately distributed into 96 well flat-bottom microculture plates (Costar) at 200 µl/well. The control, being the medium without test drug, and various below-indicated dilutions of the sample (above-described purified prolylimmunomycin) to be tested were then added in triplicate wells at 20 µl/well. FK-520 was used as a standard. The culture plates were then incubated at 37°C in a humidified atmosphere of 5% CO₂-95% air for 44 hours. The proliferation of T lymphocytes was assessed by measurement of tritiated thymidine incorporation. After 44 hours of culturing, the cells were pulse-labelled with 2 µCi/well of tritiated thymidine (NEN, Cambridge, MA). After another 4 hours of incubation, cultures were harvested on glass fiber filters using a multiple sample harvester. Radioactivity of filter discs corresponding to individual wells as measured by standard liquid scintillation counting methods (Betacounter). Mean counts per minute of replicate wells were calculated and the results expressed as percent inhibition of tritiated thymidine uptake (profileration) as follows: Inhibition = 100 -(Mean cpm sample tested X 100.)/(Mean cpm control medium) [formula]

SMILES: CC[C@@H]1/C=C(\C)C[C@H](C)C[C@H](OC)[C@H]2O[C@@](O)(C(=O)C(=O)N3CCCC[C@H]3C(=O)O[C@H](/C(C)=C/[C@@H]3CC[C@@H](O)[C@H](OC)C3)[C@H](C)[C@@H](O)CC1=O)[C@H](C)C[C@@H]2OC [FK-520, immunomycin]
- inhibition at 0.004 µg/mL (Mus musculus, 4 ng/ml, standard): 99%

SMILES: CC[C@@H]1/C=C(\C)C[C@H](C)C[C@H](OC)[C@H]2O[C@@](O)(C(=O)C(=O)N3CCC[C@H]3C(=O)O[C@H](/C(C)=C/[C@@H]3CC[C@@H](O)[C@H](OC)C3)[C@H](C)[C@@H](O)CC1=O)[C@H](C)C[C@@H]2OC [Prolyl-Immunomycin, prolyl-immunomycin]
- inhibition at 0.0019 µg/mL (1.9 ng/ml, mouse T cell cultures pulsed with 3H-thymidine for 4 hours prior to harvesting at 48 hours): 8.2%
- inhibition at 0.0039 µg/mL (3.9 ng/ml, mouse T cell cultures pulsed with 3H-thymidine for 4 hours prior to harvesting at 48 hours): 47%
- inhibition at 0.0078 µg/mL (7.8 ng/ml, mouse T cell cultures pulsed with 3H-thymidine for 4 hours prior to harvesting at 48 hours): 84.8%
- inhibition at 0.0155 µg/mL (15.5 ng/ml, mouse T cell cultures pulsed with 3H-thymidine for 4 hours prior to harvesting at 48 hours): 94.3%
- inhibition at 0.031 µg/mL (31.0 ng/ml, mouse T cell cultures pulsed with 3H-thymidine for 4 hours prior to harvesting at 48 hours): 96.3%
- inhibition at 0.062 µg/mL (62.0 ng/ml, mouse T cell cultures pulsed with 3H-thymidine for 4 hours prior to harvesting at 48 hours): 97.8%
